This test deals with T1, MsLAC1 (Miscanthus sinensis, UniProt A0A5B8YT74).
T1 construct: recombinant, secreted from Pichia pastoris X33 (pPICZalphaA, alpha-factor, MYC and HIS tags)
T1 sequence (A0A5B8YT74 32-583): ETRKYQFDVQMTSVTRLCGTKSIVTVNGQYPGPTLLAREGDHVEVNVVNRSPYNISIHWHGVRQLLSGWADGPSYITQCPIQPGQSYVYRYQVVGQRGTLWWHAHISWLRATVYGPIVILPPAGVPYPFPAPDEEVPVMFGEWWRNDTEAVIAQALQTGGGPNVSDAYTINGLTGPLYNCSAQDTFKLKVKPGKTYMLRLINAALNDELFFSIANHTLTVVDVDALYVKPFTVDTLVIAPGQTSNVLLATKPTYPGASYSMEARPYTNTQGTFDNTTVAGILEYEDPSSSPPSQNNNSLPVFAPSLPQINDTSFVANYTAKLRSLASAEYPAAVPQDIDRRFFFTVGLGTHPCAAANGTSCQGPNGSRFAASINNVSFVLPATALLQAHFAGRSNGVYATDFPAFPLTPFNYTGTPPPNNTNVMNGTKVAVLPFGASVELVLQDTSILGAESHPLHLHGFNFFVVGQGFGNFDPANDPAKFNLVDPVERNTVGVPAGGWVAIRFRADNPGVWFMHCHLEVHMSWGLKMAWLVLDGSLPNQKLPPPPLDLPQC
Nature of the test: UV-Vis spectra over time ([…]-650 nm). In kind it is biochemical. The conditions noted are these: 0.5 mM substrate, 0.02 U enzyme, 50 mM sodium acetate pH 5.0, 30 °C.

In the case of `COc1cc(/C=C/CO)ccc1O` [coniferyl alcohol], the “UV-Vis spectra over time (250-650 nm)” value is given as “recombinant MsLAC1 enzyme was able to oxidize all supplemented monolignols”.

Values taken from publication PMC6909574, “The in vivo impact of MsLAC1, a Miscanthus laccase isoform, on lignification and lignin composition contrasts with its in vitro substrate preference” (BMC Plant Biology, 2019).
